In patent publication US20240269135A1, “METHODS OF TREATING BREAST CANCER” (ASTRAZENECA AB, priority 2021, published 2024):

System: patients with HER2-negative early breast cancer with BRCA1/2 germline pathogenic/likely pathogenic variants
Assay: OlympiA randomized double-blind phase 3 trial: invasive-disease-free, distant-disease-free and overall survival (incl. subgroup and sensitivity analyses)
Type: in vivo
Excerpt: We conducted a randomized double-blind phase 3 trial involving patients with HER2-negative early breast cancer with BRCA1/2 germline pathogenic/likely pathogenic variants (gBRCA-P/LP-variant), and high-risk clinico-pathological factors, after local treatment and (neo)adjuvant chemotherapy. […] The primary endpoint was invasive disease-free-survival.
The trial was designed and conducted as a collaborative partnership between the Breast International Group (BIG) and the sponsors NRG Oncology in the United States (US) and AstraZeneca (AZ) outside the US.
Patients eligible for the trial harbored a gBRCA-P/LP variant defined by local or central testing and high-risk, HER2-negative primary breast cancer following definitive local treatment and neoadjuvant or adjuvant chemotherapy. […] Details of gBRCA-P/LP variant screening, local and central gBRCA-P/LP variant testing, and concordance is provided in Figure S2 and Table S2/S3 in Supplementary Appendix. Any gBRCA-P/LP variant eligibility adjudication was conducted by the trial Genetics Advisory Committee. Local estrogen-receptor, progesterone-receptor and HER2 testing results were used for determination of the hormone-receptor status (cut-point for positive was ≥1%) for stratification and for hormone-receptor-positive specific stage criteria for eligibility (details for receptor status central review and concordance for all patients recruited outside China are provided in Supplementary Appendix Tables S4 and S5).
Patients were required to have completed all local therapy including radiotherapy, which interacts with PARP inhibition, at least 2 and not more than 12 weeks before study entry. Patients had completed at least 6 cycles of neoadjuvant or adjuvant chemotherapy containing anthracyclines, taxanes or both agents. Platinum chemotherapy was allowed. Adjuvant bisphosphonates and adjuvant endocrine therapy in patients with hormone-receptor positive disease were given according to institutional guidelines. No chemotherapy after surgery was allowed in patients who received neoadjuvant chemotherapy.
Patients were stratified by hormone-receptor status (positive versus negative), NACT versus ACT and use of platinum chemotherapy for current breast cancer (yes versus no).
Following randomization, medical history and physical examination were performed on a 4-weekly basis for 24 weeks and then 3-monthly through year 2, 6-monthly assessments in years 3 to 5 and annually thereafter. […] Patients had mammogram and/or breast magnetic-resonance-imaging annually.
After a first event, patients were followed for first distant relapse (if not the first event), CNS metastases, loco-regional relapses, contralateral breast cancer, second primary malignancies and survival status.
In accordance with the standardized definitions for efficacy end points (STEEP) system,^21 the primary endpoint of invasive disease-free survival was defined as the time from randomization until the date of first occurrence of one of the following events: ipsilateral invasive breast tumor, locoregional invasive disease, distant recurrence, contralateral invasive breast cancer, second primary invasive cancer or death from any cause. Patients without a documented invasive disease-free survival event were censored at the date they were last known to be disease-free.
Efficacy analyses were based on the intention-to-treat (ITT) population. Survival functions were estimated by Kaplan-Meier method. The stratified Cox proportional-hazards model was used to estimate the hazard ratio and confidence intervals, the comparison of survival between treatment arms was tested by stratified log-rank test. […] Safety was assessed in the population who received at least one dose of study medication.

[1] = ITT, olaparib-group N=921, Kaplan-Meier, median follow-up 2.5 years
[2] = all deaths, ITT, olaparib N=921
[3] = percentage of the 59 deaths in the olaparib-group

O=C(c1cc(Cc2n[nH]c(=O)c3ccccc23)ccc1F)N1CCN(C(=O)C2CC2)CC1 [Olaparib, 4-[(3-{[4-(cyclopropane-carbonyl)piperazine-1-yl]carbonyl}-4-fluorophenyl)methyl]-2H-phthalazin-1-one]
Deaths without a prior IDFS event (ITT, olaparib N=921): 2 no. of patients | IDFS events (ITT, olaparib N=921): 106 no. of patients | Total number of deaths (ITT, olaparib N=921): 59 no. of patients | 3-year distant-disease-free survival [1]: 87.5% | 3-year invasive-disease-free survival [1]: 85.9% | difference in 3-year distant-disease-free survival, olaparib vs placebo (ITT, 95% CI 3.0%, 11.1%): 7.1% | difference in 3-year invasive-disease-free survival, olaparib vs placebo (ITT, 95% CI 4.5%, 13.0%): 8.8% | Invasive disease free survival Events (%) (Overall): 106 (11.5)/178 (19.5) events (%) | Primary cause of death: Adverse event [2]: 1 no. of patients | Primary cause of death: Breast cancer [2]: 55 no. of patients | Primary cause of death: Other [2]: 3 no. of patients | Primary cause of death: Adverse event [3]: 1.7% | Primary cause of death: Breast cancer [3]: 93.2% | Primary cause of death: Other [3]: 5.1% | Invasive disease free survival Events (%) (subgroup Age 50-64 years at randomisation): 22 (11.4)/41 (19.5) events (%) | Invasive disease free survival Events (%) (subgroup Age < 50 years at randomisation): 79 (11.3)/133 (19.8) events (%) | Invasive disease free survival Events (%) (subgroup Age ≥ 65 years at randomisation): 5 (17.2)/4 (12.5) events (%) | Invasive disease free survival Events (%) (subgroup BRCA1/2 both with no prior platinum therapy for current breast cancer): 0 (0.0)/0 (0.0) events (%) | Invasive disease free survival Events (%) (subgroup BRCA1/2 both with prior platinum therapy for current breast cancer): 0/0 (0.0) events (%) | Invasive disease free survival Events (%) (subgroup BRCA1 with no prior platinum therapy for current breast cancer): 43 (11.2)/91 (24.0) events (%) | Invasive disease free survival Events (%) (subgroup BRCA1 with prior platinum therapy for current breast cancer): 27 (15.5)/35 (19.6) events (%) | Invasive disease free survival Events (%) (subgroup BRCA2 with no prior platinum therapy for current breast cancer): 18 (10.2)/30 (17.8) events (%) | Invasive disease free survival Events (%) (subgroup BRCA2 with prior platinum therapy for current breast cancer): 4 (7.5)/8 (20.0) events (%) | Invasive disease free survival Events (%) (subgroup BRCA variant type: BRCA1): 70 (12.5)/126 (22.6) events (%) | Invasive disease free survival Events (%) (subgroup BRCA variant type: BRCA1/2): 0 (0.0)/0 (0.0) events (%) | Invasive disease free survival Events (%) (subgroup BRCA variant type: BRCA2): 22 (9.6)/38 (18.2) events (%) | Invasive disease free survival Events (%) (subgroup Bilateral oophorectomy prior to first dose): 14 (7.4)/38 (21.6) events (%) | Invasive disease free survival Events (%) (subgroup Ethnicity: Hispanic or Latino): 7 (20.6)/7 (29.2) events (%) | Invasive disease free survival Events (%) (subgroup Ethnicity: Not Hispanic or Latino): 88 (10.9)/153 (18.8) events (%) | Invasive disease free survival Events (%) (subgroup Ethnicity: Not known, not recorded or refused): 11 (13.4)/18 (22.8) events (%) | Invasive disease free survival Events (%) (subgroup Geographic region: Asia Pacific and South Africa): 30 (9.9)/55 (17.2) events (%) | Invasive disease free survival Events (%) (subgroup Geographic region: Europe): 62 (12.9)/95 (21.0) events (%) | Invasive disease free survival Events (%) (subgroup Geographic region: North America): 11 (9.0)/23 (17.4) events (%) | Invasive disease free survival Events (%) (subgroup Geographic region: South America): 3 (18.8)/5 (41.7) events (%) | Invasive disease free survival Events (%) (subgroup HR status: HR+/HER2−): 19 (11.3)/25 (15.9) events (%) | Invasive disease free survival Events (%) (subgroup HR status: TNBC): 87 (11.6)/153 (20.2) events (%) | Invasive disease free survival Events (%) (subgroup HR+/HER2− with adjuvant chemotherapy): 6 (9.4)/5 (7.7) events (%) | Invasive disease free survival Events (%) (subgroup HR+/HER2− with neoadjuvant chemotherapy): 13 (12.5)/20 (21.7) events (%) | Invasive disease free survival Events (%) (subgroup Jewish descent: No, not of Ashkenazi descent): 100 (11.4)/169 (19.3) events (%) | Invasive disease free survival Events (%) (subgroup Jewish descent: Yes, of Ashkenazi descent): 6 (14.6)/9 (25.0) events (%) | Invasive disease free survival Events (%) (subgroup No bilateral oophorectomy prior to first dose): 92 (12.6)/140 (18.9) events (%) | Invasive disease free survival Events (%) (subgroup No prior platinum/ACT): 28 (7.3)/57 (14.8) events (%) | Invasive disease free survival Events (%) (subgroup No prior platinum/HR+/HER2−): 13 (9.3)/22 (16.4) events (%) | Invasive disease free survival Events (%) (subgroup No prior platinum/NACT): 44 (15.1)/78 (26.8) events (%) | Invasive disease free survival Events (%) (subgroup No prior platinum/TNBC): 59 (11.1)/113 (20.8) events (%) | Invasive disease free survival Events (%) (subgroup Primary Study Database: Breast International Group (BIG)): 95 (11.7)/160 (19.9) events (%) | Invasive disease free survival Events (%) (subgroup Primary Study Database: NRG Oncology (US)): 11 (9.9)/18 (16.5) events (%) | Invasive disease free survival Events (%) (subgroup Prior Chemo: Adjuvant): 36 (7.8)/61 (13.4) events (%) | Invasive disease free survival Events (%) (subgroup Prior Chemo: Neoadjuvant): 70 (15.2)/117 (25.4) events (%) | Invasive disease free survival Events (%) (subgroup Prior Platinum: No): 72 (10.7)/135 (20.0) events (%) | Invasive disease free survival Events (%) (subgroup Prior Platinum: Yes): 34 (13.8)/43 (18.0) events (%) | Invasive disease free survival Events (%) (subgroup Prior platinum/ACT): 8 (10.3)/4 (5.7) events (%) | Invasive disease free survival Events (%) (subgroup Prior platinum/HR+/HER2−): 6 (21.4)/3 (13.0) events (%) | Invasive disease free survival Events (%) (subgroup Prior platinum/NACT): 26 (15.4)/39 (23.1) events (%) | Invasive disease free survival Events (%) (subgroup Prior platinum/TNBC): 28 (12.8)/40 (18.5) events (%) | Invasive disease free survival Events (%) (subgroup Race: Asian): 25 (9.7)/46 (16.9) events (%) | Invasive disease free survival Events (%) (subgroup Race: Black/African-American): 4 (21.1)/5 (17.2) events (%) | Invasive disease free survival Events (%) (subgroup Race: Other): 2 (11.8)/3 (20.0) events (%) | Invasive disease free survival Events (%) (subgroup Race: White): 75 (12.0)/124 (20.7) events (%) | Invasive disease free survival Events (%) (subgroup TNBC adjuvant cohort, pN status at surgery: Node negative): 13 (6.4)/22 (11.5) events (%) | Invasive disease free survival Events (%) (subgroup TNBC adjuvant cohort, pN status at surgery: Node positive): 15 (8.6)/31 (17.5) events (%) | Invasive disease free survival Events (%) (subgroup TNBC with adjuvant chemotherapy): 30 (7.6)/56 (14.4) events (%) | Invasive disease free survival Events (%) (subgroup TNBC with neoadjuvant chemotherapy): 57 (16.1)/97 (26.4) events (%) | Invasive disease free survival Events (%) (subgroup breast surgery prior to randomisation: Breast conservation): 20 (9.0)/46 (19.2) events (%) | Invasive disease free survival Events (%) (subgroup post neoadjuvant group: CPS + EG score of 2, 3 or 4): 55 (13.8)/96 (24.8) events (%) | Invasive disease free survival Events (%) (subgroup post neoadjuvant group: CPS + EG score of 5 or 6): 11 (50.0)/10 (66.7) events (%) | Invasive disease free survival Events (%) (subgroup prior chemotherapy: Anthracycline and taxane regimen): 101 (11.6)/168 (19.8) events (%) | Invasive disease free survival Events (%) (subgroup prior chemotherapy: Anthracycline regimen (without taxane)): 0 (0.0)/2 (15.4) events (%) | Invasive disease free survival Events (%) (subgroup prior chemotherapy: Taxane regimen (without Anthracycline)): 5 (11.6)/8 (15.4) events (%)
